Data taken from ChEMBL document CHEMBL1201862, “PubChem BioAssay data set” (2004).
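Values below derive from 48-hour exposures of cells grown in 96-well plates, with endpoints linearly interpolated between the two concentrations bracketing the appropriate inhibition level. GI50: concentration for 50% inhibition of growth.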 Calls of active or inactive are those of the source. Rule as the data show it: active = GI50 up to about 1.1 µM and inactive = higher.

Experiments:
Experiment in all cases: DTP human tumour cell line panel, 48 h
[1] = tested on: HOP-92
[2] = tested on: A549
[3] = tested on: HT-29
[4] = tested on: RPMI-8226
[5] = tested on: XF498
[6] = tested on: HOP-18
[7] = tested on: UACC-62
[8] = tested on: CCRF-CEM
[9] = tested on: SF-268
[10] = tested on: Malme-3M
[11] = tested on: DMS-114
[12] = tested on: HOP-62
[13] = tested on: DMS-273
[14] = tested on: ACHN
[15] = tested on: UO-31
[16] = tested on: KM-20L2
[17] = tested on: OVCAR-8
[18] = tested on: HCC 2998
[19] = tested on: NCI-H522
[20] = tested on: U-251
[21] = tested on: CAKI-1
[22] = tested on: SR
[23] = tested on: OVCAR-5
[24] = tested on: MOLT-4
[25] = tested on: SF-295
[26] = tested on: EKVX
[27] = tested on: HCT-15
[28] = tested on: NCI-H23
[29] = tested on: NCI-H460
[30] = tested on: SF-539
[31] = tested on: LXFL 529
[32] = tested on: SN12C
[33] = tested on: 786-0
[34] = tested on: SNB-75
[35] = tested on: SK-MEL-2
[36] = tested on: SK-MEL-28
[37] = tested on: IGROV-1
[38] = tested on: SK-MEL-5
[39] = tested on: A498
[40] = tested on: COLO 205
[41] = tested on: LOX IMVI
[42] = tested on: OVCAR-3
[43] = tested on: NCI-H226
[44] = tested on: HCT-116
[45] = tested on: RXF 631
[46] = tested on: KM12
[47] = tested on: SK-OV-3
[48] = tested on: HL-60
[49] = tested on: M14
[50] = tested on: DLD-1
[51] = tested on: SW-620
[52] = tested on: SNB-19
[53] = tested on: OVCAR-4
[54] = tested on: TK-10
[55] = tested on: K562
[56] = tested on: UACC-257
[57] = tested on: SNB-78
[58] = tested on: M19-MEL
[59] = tested on: RXF 393

`CN(C)CCN1N=Nc2cccc3cccc1c23` was tested, and the GI50 [1] was > 100 µM (inactive), the GI50 [2] was > 100 µM (inactive) and the GI50 [3] was 45.6 µM (inactive). For the same compound, the GI50 [4] was > 43.9 µM (inactive), the GI50 [5] was > 89.5 µM (inactive) and the GI50 [6] was > 100 µM (inactive). For the same compound, the GI50 [7] was > 100 µM (inactive), the GI50 [8] was > 47 µM (inactive) and the GI50 [9] was > 100 µM (inactive). The GI50 [10] was > 78.3 µM (inactive), the GI50 [11] was > 74.8 µM (inactive) and the GI50 [12] was > 100 µM (inactive). For the same compound, the GI50 [13] was 24.5 µM (inactive), the GI50 [14] was 61.1 µM (inactive) and the GI50 [15] was > 100 µM (inactive). The GI50 [16] was > 61.4 µM (inactive), the GI50 [17] was 97.9 µM (inactive) and the GI50 [18] was > 100 µM (inactive). For the same compound, the GI50 [19] was 54.2 µM (inactive), the GI50 [20] was > 100 µM (inactive) and the GI50 [21] was 69.7 µM (inactive). For the same compound, the GI50 [22] was 15.7 µM (inactive), the GI50 [23] was > 100 µM (inactive) and the GI50 [24] was 35.2 µM (inactive). The GI50 [25] was > 100 µM (inactive), the GI50 [26] was > 100 µM (inactive) and the GI50 [27] was > 61.9 µM. For the same compound, the GI50 [28] was > 100 µM (inactive), the GI50 [29] was 37.5 µM (inactive) and the GI50 [30] was > 100 µM (inactive). For the same compound, the GI50 [31] was > 87.3 µM (inactive), the GI50 [32] was > 55.5 µM (inactive) and the GI50 [33] was > 100 µM (inactive). The GI50 [34] was > 100 µM (inactive), the GI50 [35] was > 100 µM (inactive) and the GI50 [36] was > 100 µM (inactive). The GI50 [37] was > 100 µM (inactive), the GI50 [38] was > 88.7 µM (inactive) and the GI50 [39] was > 91.8 µM (inactive). For the same compound, the GI50 [40] was 68.4 µM (inactive), the GI50 [41] was 83.8 µM (inactive) and the GI50 [42] was > 100 µM (inactive). The GI50 [43] was > 100 µM (inactive), the GI50 [44] was 57.1 µM (inactive) and the GI50 [45] was > 100 µM (inactive). For the same compound, the GI50 [46] was > 100 µM (inactive), the GI50 [47] was > 100 µM (inactive) and the GI50 [48] was > 46.8 µM (inactive). The GI50 [49] was > 100 µM (inactive), the GI50 [50] was > 80.7 µM (inactive) and the GI50 [51] was 25.1 µM (inactive). For the same compound, the GI50 [52] was > 100 µM (inactive), the GI50 [53] was 72.9 µM (inactive) and the GI50 [54] was > 100 µM (inactive). For the same compound, the GI50 [55] was > 65.2 µM (inactive) and the GI50 [56] was > 100 µM (inactive).
`CC(C)(C)NC(=O)C12C3C4C1C1C2C3C41I` (configuration not stated) was tested, and the GI50 [1] was 84.1 µM (inactive), the GI50 [2] was > 100 µM (inactive) and the GI50 [3] was > 100 µM (inactive). The GI50 [4] was > 100 µM (inactive), the GI50 [5] was > 100 µM (inactive) and the GI50 [8] was > 100 µM (inactive). For the same compound, the GI50 [10] was > 100 µM (inactive), the GI50 [11] was > 100 µM (inactive) and the GI50 [13] was > 100 µM (inactive). For the same compound, the GI50 [15] was > 100 µM (inactive), the GI50 [16] was > 100 µM (inactive) and the GI50 [17] was > 100 µM (inactive). For the same compound, the GI50 [18] was > 100 µM (inactive), the GI50 [19] was > 100 µM (inactive) and the GI50 [20] was > 100 µM (inactive). For the same compound, the GI50 [57] was > 100 µM (inactive), the GI50 [21] was > 100 µM (inactive) and the GI50 [22] was > 100 µM (inactive). The GI50 [23] was > 100 µM (inactive), the GI50 [24] was > 100 µM (inactive) and the GI50 [25] was > 100 µM (inactive). For the same compound, the GI50 [27] was > 100 µM, the GI50 [28] was > 100 µM (inactive) and the GI50 [29] was > 100 µM (inactive). For the same compound, the GI50 [30] was > 100 µM (inactive), the GI50 [31] was > 100 µM (inactive) and the GI50 [32] was > 100 µM (inactive). For the same compound, the GI50 [33] was > 100 µM (inactive), the GI50 [35] was > 100 µM (inactive) and the GI50 [36] was > 100 µM (inactive). For the same compound, the GI50 [58] was > 100 µM (inactive), the GI50 [39] was > 100 µM (inactive) and the GI50 [40] was > 100 µM (inactive). For the same compound, the GI50 [41] was > 100 µM (inactive), the GI50 [43] was > 100 µM (inactive) and the GI50 [44] was > 100 µM (inactive). The GI50 [45] was > 100 µM (inactive), the GI50 [46] was > 100 µM (inactive) and the GI50 [48] was > 100 µM (inactive). For the same compound, the GI50 [51] was > 100 µM (inactive), the GI50 [52] was > 100 µM (inactive) and the GI50 [54] was > 100 µM (inactive). For the same compound, the GI50 [55] was > 100 µM (inactive) and the GI50 [56] was > 100 µM (inactive).
In the case of `CC1CCN(CCC(=O)CC(c2ccccc2)c2c(O)c3ccccc3oc2=O)CC1` (configuration not stated), the GI50 [2] is reported as > 100 µM (inactive), the GI50 [3] is reported as > 100 µM (inactive) and the GI50 [4] is reported as > 100 µM (inactive). The GI50 [5] was > 100 µM (inactive), the GI50 [7] was > 100 µM (inactive) and the GI50 [8] was > 100 µM (inactive). The GI50 [9] was > 100 µM (inactive), the GI50 [11] was > 100 µM (inactive) and the GI50 [12] was > 100 µM (inactive). The GI50 [13] was > 100 µM (inactive), the GI50 [14] was > 100 µM (inactive) and the GI50 [15] was > 100 µM (inactive). For the same compound, the GI50 [16] was > 100 µM (inactive), the GI50 [17] was > 100 µM (inactive) and the GI50 [19] was > 100 µM (inactive). For the same compound, the GI50 [20] was > 100 µM (inactive), the GI50 [57] was 34.4 µM (inactive) and the GI50 [21] was > 100 µM (inactive). For the same compound, the GI50 [22] was > 100 µM (inactive), the GI50 [24] was > 100 µM (inactive) and the GI50 [25] was > 100 µM (inactive). The GI50 [26] was > 100 µM (inactive), the GI50 [27] was > 100 µM and the GI50 [28] was > 100 µM (inactive). The GI50 [29] was > 100 µM (inactive), the GI50 [30] was > 100 µM (inactive) and the GI50 [33] was > 100 µM (inactive). The GI50 [34] was 82.8 µM (inactive), the GI50 [35] was > 100 µM (inactive) and the GI50 [59] was > 100 µM (inactive). For the same compound, the GI50 [36] was > 100 µM (inactive), the GI50 [37] was > 100 µM (inactive) and the GI50 [58] was > 100 µM (inactive). The GI50 [38] was > 100 µM (inactive), the GI50 [39] was > 100 µM (inactive) and the GI50 [40] was > 100 µM (inactive). For the same compound, the GI50 [41] was > 100 µM (inactive), the GI50 [42] was > 100 µM (inactive) and the GI50 [43] was 80 µM (inactive). For the same compound, the GI50 [44] was > 100 µM (inactive), the GI50 [45] was > 100 µM (inactive) and the GI50 [46] was > 100 µM (inactive). For the same compound, the GI50 [47] was > 100 µM (inactive), the GI50 [48] was > 100 µM (inactive) and the GI50 [49] was > 100 µM (inactive). For the same compound, the GI50 [50] was > 100 µM (inactive), the GI50 [51] was > 100 µM (inactive) and the GI50 [52] was > 100 µM (inactive). For the same compound, the GI50 [53] was > 100 µM (inactive), the GI50 [54] was > 100 µM (inactive) and the GI50 [55] was > 100 µM (inactive). The GI50 [56] was > 100 µM (inactive).
